19 compounds from US6395762B1, “Phenyl amino squarate and thiadiazole dioxide beta-3 adrenergic receptor agonists” (American Home Products Corporation, priority 2000, dated 2002) can be followed below.

The target in this assay is T1, human β3-AR (Homo sapiens, UniProt P13945).
T1 construct: Full-length β3-AR clones (402 amino acids) containing the last 6 amino acids of hβ3-AR; expressed in transfected cells; host or cells: CHO (Chinese hamster ovary) cells
Nature of the assay: cAMP accumulation (SPA) in CHO cells transfected with human β3-AR. Type of assay: cell-based. As to conditions: CHO cells transfected with human β3-AR; for EC50: cAMP by SPA, 30 min at 37° C., 10^−9 M to 10^−5 M, read-out: EC50(β3); for IA(β3): maximal response of compound relative to maximal response of isoproterenol at 10^−5 M. The method, then: The ability of the compounds of this invention to treat or inhibit disorders related to insulin resistance or hyperglycemia was confirmed with representative compounds of this invention in the following standard pharmacological test procedures, which measured the binding selectivity of the β1-, β2-, and β3-AR. Binding to the receptors was measured in Chinese Hamster ovary (CHO) cells that were transfected with β1-, β2-, and β3-AR's. The following briefly summarizes the procedures used and results obtained.
Cloning of Human β3-AR Genomic DNA: cDNA was constructed by ligating four polymerase chain reaction (PCR) products using the following primers: an ATG-Narl fragment, sense primer 5′-[…]3′ and anti-sense primer 5′[…]3′; a Narl-Accl fragment, 5′[…]3′ as sense and 5′[…]3′ as anti-sense primer; an Accli—Styl fragment, sense primer 5′[…]3′ and anti-sense primer 5′[…]3′ and a Styl-TAG fragment, with sense primer 5′ […]3′ and anti-sense primer 5′ […]3′ . The corresponding primer sequences are described in Mantzoros, C. S., et.al., Diabetes, 1996, 45, 909-914. The four fragments are ligated into a pUC 18 plasmid (Gibco-BRL) and sequenced. Full-length β3-AR clones (402 amino acids) containing the last 6 amino acids of hβ3-AR are prepared with the β3-βARpcDNA3 from ATTC.
Binding Procedure: Clones expressing receptor levels of 70 to 110 fmoles/mg protein were used in the test procedures. CHO cells were grown in 24-well tissue culture plates in Dulbecco's Modified Eagle Media with 10% fetal bovine serum, MEM non-essential amino acids, Penicillin—Streptomycin and Geneticin. On the day of test procedure, growth medium was replaced with preincubation media (Dulbecco's Modified Eagle Media) and incubated for 30 minutes at 37° C. Pre-incubation medium was replaced with 0.2 ml treatment medium containing DMEM media containing 250 μM IBMX (isobutyl-1-methylxantine) plus 1 mM ascorbic acid with test compound dissolved in DMSO. Test compounds were assayed over a concentration range of 10^−9 M to 10^−5 M for β3-AR transfected cells and 10^−8 to 10^−4 M for β1-AR and β2-AR transfected cells. Isoproterenol (10^−5 M) was used as an internal standard for comparison of activity. Cells were incubated at 37° C. on a rocker for 30 min with the β3-AR transfected cells and 15 min with β1-AR and β2-AR transfected cells. Incubation was stopped by the addition of 0.2N HCl and the acid was neutralized with 2.5N NaOH. The plates, containing the cells and neutralized media, were stored at −20° C. until ready to test for cAMP using the SPA test kit (Amersham).
Data Analysis and Results: Data collected from the SPA test procedure were analyzed as percent of the maximal isoproterenol response at 10^−5 M. Activity curves were plotted using the SAS statistical and graphics software.
On the technique in general: Changes in cAMP serve as a functional read-out for many G protein-coupled receptors.

T1 sequence (P13945 whole entry): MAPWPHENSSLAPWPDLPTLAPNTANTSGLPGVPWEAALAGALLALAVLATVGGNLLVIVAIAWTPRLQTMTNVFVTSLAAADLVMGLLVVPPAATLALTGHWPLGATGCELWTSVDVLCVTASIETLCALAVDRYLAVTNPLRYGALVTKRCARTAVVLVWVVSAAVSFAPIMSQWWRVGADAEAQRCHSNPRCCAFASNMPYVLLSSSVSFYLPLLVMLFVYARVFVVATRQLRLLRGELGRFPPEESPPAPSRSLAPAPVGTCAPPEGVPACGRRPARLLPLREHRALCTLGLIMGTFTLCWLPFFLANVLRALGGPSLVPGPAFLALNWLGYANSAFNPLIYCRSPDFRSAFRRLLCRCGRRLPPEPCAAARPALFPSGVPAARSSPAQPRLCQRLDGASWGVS

The term EC50 denotes the midpoint of the concentration-response curve. On to `CCCCCCNC(=O)Nc1ccc(C2(CNC3=NS(=O)(=O)N=C3Nc3ccc(CC(C)(C)NC[C@@H](O)COc4ccc(OCc5ccccc5)cc4)cc3)CCCC2)cc1` [8 (step H), 1-[4-(1-{[4-(4-{2-[(2R)-3-(4-Benzyloxy-phenoxy)-2-hydroxy-propylamino]-2-methyl-propyl}-phenylamino)-1 1-dioxo-1H-1.lambda(6).-[1,2,5]thiadiazol-3-ylamino]-methyl}-cyclopentyl)-phenyl]-3-hexyl-urea], for which the EC50 was 60 nM and the “IA(β3)” value worked out at 0.40.
For `CCOC(=O)CCCNC1=NS(=O)(=O)N=C1Nc1ccc(CC(C)NC[C@H](O)COc2ccc(O)cc2)cc1` (stereo partly drawn) [Compound 33, 4-{4-(4-{2-[(2S)-2-Hydroxy-3-(4-hydroxy-phenoxy)-propylamino]-propyl}-phenylamino)-1,1-dioxo-1H-1.lambda(6).-[1,2,5]thiadiazol-3-ylamino]-butyric acid ethyl ester], the EC50 worked out at 37 nM and the “IA(β3)” value worked out at 1.17.
The matching figures for `CC(Cc1ccc(NC2=NS(=O)(=O)N=C2NCC2(c3ccccc3)CCCC2)cc1)NC[C@H](O)COc1ccc(O)cc1` (stereo partly drawn) [Compound 31, 4-{(2S)-3-[2-(4-{1,1-Dioxo-4-[(1-phenyl-cyclopentylmethyl)-amino]-1H-1(lambda(6))-[1,2,5]thiadiazol-3-ylamino}-phenyl)-1-methyl-ethylamino]-2-hydroxy-propoxy}-phenol]: 5 nM and 1.0.
Taken in the same sequence, the figures for `CCCCCCCCNC1=NS(=O)(=O)N=C1Nc1ccc(CCNC[C@H](O)COc2ccc(OCc3ccccc3)cc2)cc1` [5 (step E), (2S)-1-(4-Benzyloxy-phenoxy)-3-{2-[4-(4-octylamino-1,1-dioxo-1H-1.lambda(6).-[1,2,5]thiadiazol-3-ylamino)-phenyl]ethylamino}-propan-2-ol] were 1390 nM and 0.15.
For `CCCCCCCCNC1=NS(=O)(=O)N=C1Nc1ccc(CC(C)NCC(O)c2cccc(Cl)c2)cc1` [Compound 3, (1R)-1-(3-Chloro-phenyl)-2-{1-methyl-2-[4-(octylamino-1,1-dioxo-1H-1-.lambda(6).-1,2,5]thiadiazol-3-ylamino)-phenyl]-ethylamino}-ethanol], the concentration giving a half-maximal response (EC50) came out at 38 nM and the “IA(β3)” value was determined as 0.86.
The matching figures for `CCCCCCCCNC1=NS(=O)(=O)N=C1Nc1ccc(CC(C)(C)NC[C@H](O)COc2ccc(O)cc2)cc1` [Compound 4]: 68 nM and 1.10.
For the compound `CN(C)c1ccc(C2(CNC3=NS(=O)(=O)N=C3Nc3ccc(CC(C)(C)NCC(O)c4ccc(O)c(NS(C)(=O)=O)c4)cc3)CCCC2)cc1` (stereo not drawn) [Compound 34, N-[5-(2-{2-[4-(4-{[1-(4-dimethylamino-phenyl)-cyclopentylmethyl]-amino}-1,1-dioxo-1H-1.lambda(6).-[1,2,5]thiadiazol-3-ylamino)-phenyl]-1,1-dimethyl-ethylamino}-1-hydroxy-ethyl)-2-hydroxy-phenyl]-methanesulfonamide], the EC50 turned out to be 0.8 nM and the “IA(β3)” value was determined as 1.0.
The matching figures for `CCCCCCCCNc1c(Nc2ccc(CC(C)NC[C@H](O)COc3ccc(O)cc3)cc2)c(=O)c1=O` (stereo partly drawn) [Compound 14, 3-(4-{2-[(2S)-2-Hydroxy-3-(4-hydroxy-phenoxy)-propylamino]-propyl}-phenylamino)-4-octylamino-cyclobut-3-ene-1,2-dione]: 21 nM and 0.81.
`CCCCCCCCCCNC1=NS(=O)(=O)N=C1Nc1ccc(CC(C)NC[C@H](O)COc2ccccc2)cc1` (stereo partly drawn) [Compound 20, (2S)-1-{2-[4-(4-Decylamino-1,1-dioxo-1H-1(lambda(6))-[1,2,5]thiadiazol-3-ylamino)-phenyl]-1-methyl-ethylamino}-3-phenoxy-propan-2-ol]: the “IA(β3)” value was found to be 0.39.
Consider `CCCCCCCCNC1=NS(=O)(=O)N=C1Nc1ccc(CC(C)(C)NC[C@H](O)COc2ccc(OCc3ccccc3)cc2)cc1` [4 (step F)], for which the EC50 is 1060 nM and the “IA(β3)” value came out at 0.37.
In the case of `CCCCCCCCNC1=NS(=O)(=O)N=C1Nc1ccc(CC(C)NC[C@H](O)c2ccc(OCc3ccccc3)c(NS(C)(=O)=O)c2)cc1` (stereo partly drawn) [6 (step B), N-[2-Benzyloxy-5-((1R)-1-hydroxy-2-{1-methyl-2-[4-(4-octylamino-1,1-dioxo-1H-1(lambda(6))-[1,2,5]thiadiazol-3-ylamino)-phenyl]-ethylamino}-ethyl)-phenyl]-methanesulfonamide], the “IA(β3)” value stood at 0.32.
In the case of “(2S)-1-(4-Benzyloxy-phenoxy)-3-{2-[4-(4-decylamino-1,1-dioxo-1H-1-. lambda(6).-[1,2,5]thiadiazol-3-ylamino)-phenyl]-1-methyl-ethylamino}-propan-2-ol [Compound 18]”, the “IA(β3)” value came to 0.46.
On to `CC(C)(Cc1ccc(NC2=NS(=O)(=O)N=C2NCC(c2ccccc2)c2ccccc2)cc1)NC[C@H](O)COc1ccc(O)cc1` [Compound 29, 4-[(2S)-3-(2-{4-[4-(2,2-Diphenyl-ethylamino)-1,1-dioxo-1H-1(lambda(6))-[1,2,5]thiadiazol-3-ylamino]-phenyl}-1,1-dimethyl-ethylamino)-2-hydroxy-propoxy]l-phenol], for which the EC50 amounted to 14 nM and the “IA(β3)” value is recorded as 0.89.
With `CN(C)c1ccc(C2(CNC3=NS(=O)(=O)N=C3Nc3ccc(CC(C)(C)NC[C@H](O)COc4ccc(O)cc4)cc3)CCCC2)cc1` [Compound 7, 4-{[(2S)-3-({2-[4-({4-[({1-[4-(dimethylamino)phenyl]cyclopentyl}methyl)amino]1,1-dioxido-1,25-thiadiazol-3-yl}amino)phenyl]-1 1-dimethylethyl}amino)-2-hydroxypropyl]oxy}phenol], the EC50 was 55 nM and the “IA(β3)” value was 0.74.
The matching figures for `CCCCCCCCCCNC1=NS(=O)(=O)N=C1Nc1ccc(CC(C)NC[C@H](O)COc2ccc(O)cc2)cc1` (stereo partly drawn) [Compound 25, 4-((2S)-3-{2-[4-(4-Decylamino-1,1-dioxo-1H-1(lambda(6))-[1,2,5]thiadiazol-3-ylamino)-phenyl]-1-methyl-ethylamino}-2-hydroxy-propoxy)-phenol]: 88 nM and 0.85.
The matching figures for `CN(C)c1ccc(C2(CNC3=NS(=O)(=O)N=C3Nc3ccc(CC(C)(C)NC[C@H](O)COc4ccc(OCc5ccccc5)cc4)cc3)CCCC2)cc1` [7 (step E), (2S)-1-(4-Benzyloxy-phenoxy)-3-{2-{4-(4-{[1-(4-dimethylamino-phenyl)-cyclopentylmethyl]-amino}-1,1-dioxo-1H-1(lambda(6))-[1,2,5]thiadiazol-3-ylamino)-phenyl]-1,1-dimethyl-ethylamino}-propan-2-ol]: 682 nM and 0.56.
With `CCCCCCCCCCNC1=NS(=O)(=O)N=C1Nc1ccc(CC(C)NC[C@H](O)COc2cccc3[nH]c4ccccc4c23)cc1` (stereo partly drawn) [Compound 19, (2S)-1-(9H-Carbozol-4-yloxy)-3-{2-[4-(4-decylamino-1,1-dioxo-1H-1-.lambda(6).-[1,2,5]thiadiazol-3-ylamino)-phenyl]-1-methyl-ethylamino}-propan-2-ol], the “IA(β3)” value is 0.36.
With `CCOC(=O)CCCNC1=NS(=O)(=O)N=C1Nc1ccc(CC(C)NC[C@H](O)COc2ccc(OCc3ccccc3)cc2)cc1` (stereo partly drawn) [Compound 32, 4-[4-(4-{2-[(2S)-3-(4-benzyloxy-phenoxy)-2-hydroxy-propylamino]-propyl}-phenylamino)-1,1-Dioxo-1H-1(lambda(6))-[1,2,5]thiadiazol-3-ylamino]-butyric acid ethyl ester], the concentration giving a half-maximal response (EC50) came out at 90 nM and the “IA(β3)” value came out at 0.62.
For `CCCCCCCCNC1=NS(=O)(=O)N=C1Nc1ccc(CC(C)NC[C@H](O)COc2ccc(OCc3ccccc3)cc2)cc1` (stereo partly drawn) [Compound 11, (2S)-1-(4-Benzyloxy-phenoxy)-3-{1-methyl-2-[4-(4-octylamino-1,1-dioxo-1H-1.lambda(6).-[1,2,5]thiadiazol-3-ylamino)-phenyl]-ethylamino}-propan-2-ol], the “IA(β3)” value was 0.29.
